Measurements from ChEMBL document CHEMBL1128820, “Synthesis and evaluation of nitro 5-deazaflavins as novel bioreductive antitumor agents” (Bioorg Med Chem Lett, 1995).

How the values were obtained:
Type in all cases: functional, cell-based
KB [1] = experiment: In vitro antitumor activity against human epidermoid carcinoma KB cells by using MTT assay; No significant cytotoxicity
L1210 [2] = experiment: In vitro antitumor activity against murine lymphoma L1210 cells by using MTT assay; No significant cytotoxicity; conditions: Mus musculus
KB [3] = experiment: In vitro antitumor activity against human epidermoid carcinoma KB cells by MTT assay.
L1210 [4] = experiment: In vitro antitumor activity against murine lymphoma L1210 cells by MTT assay.; conditions: Mus musculus

SMILES	IC50 (KB [3]) [µM]	IC50 (L1210 [4]) [µM]	IC50 (KB [1]) [µM]	IC50 (L1210 [2]) [µM]
CCCCCCCCn1c2nc(=O)n(-c3ccccc3)c(=O)c-2cc2ncccc21	–	–	> 200	> 200
CCCCCCCCCCCCn1c2nc(=O)[nH]c(=O)c-2cc2ccc(C(F)(F)F)cc21	–	–	> 200	> 200
CCCCCCCCn1c2nc(=O)n(-c3ccccc3)c(=O)c-2cc2ccccc21	–	–	> 200	> 200
CCCCCCCCn1c2nc(=O)n(-c3ccccc3)c(=O)c-2cc2cccc([N+](=O)[O-])c21	6	1.5	–	–
CCCCCCCCCCCCn1c2nc(=O)n(C)c(=O)c-2cc2ncccc21	–	–	> 200	> 200
CCCCCCCCCCCCn1c2nc(=O)n(C)c(=O)c-2cc2ccc([N+](=O)[O-])cc21	8	5.2	–	–
CCCCCCCCn1c2nc(=O)n(CC(=O)OCC)c(=O)c-2cc2ccc([N+](=O)[O-])cc21	7.6	8.4	–	–
CCCCCCCCn1c2nc(=O)n(CC(=O)OCC)c(=O)c-2cc2cc([N+](=O)[O-])ccc21	30	12	–	–
CCCCCCCCn1c2nc(=O)n(CC(=O)OCC)c(=O)c-2cc2cccc([N+](=O)[O-])c21	3.6	4	–	–
CCCCCCCCCCCCn1c2nc(=O)[nH]c(=O)c-2cc2cc(C(F)(F)F)ccc21	–	–	> 200	> 200
CCCCCCCCCCCCn1c2nc(=O)[nH]c(=O)c-2cc2ccccc21	–	–	> 200	> 200
CCCCCCCCCCCCn1c2nc(=O)n(C)c(=O)c-2cc2cccc([N+](=O)[O-])c21	20	7.8	–	–
CCCCCCCCn1c2nc(=O)n(-c3ccccc3)c(=O)c-2cc2cccnc21	–	–	> 200	> 200
CCCCCCCCCCCCn1c2nc(=O)n(C)c(=O)c-2cc2cccnc21	–	–	> 200	> 200
CCCCCCCCCCCCn1c2nc(=O)n(C)c(=O)c-2cc2c([N+](=O)[O-])cccc21	6.8	1.6	–	–
CCCCCCCCn1c2nc(=O)n(-c3ccccc3)c(=O)c-2cc2cc([N+](=O)[O-])ccc21	7.6	9.6	–	–
CCCCCCCCn1c2nc(=O)n(CC(=O)OCC)c(=O)c-2cc2ccccc21	–	–	> 200	> 200
CCCCCCCCCCCCn1c2nc(=O)n(C)c(=O)c-2cc2ccccc21	–	–	> 200	> 200

Now from value to compound, other results behind:

IC50 (KB [3]) [µM]	IC50 (L1210 [4]) [µM]	SMILES	IC50 (KB [1]) [µM]	IC50 (L1210 [2]) [µM]
26.4	6.8	CCCCCCCCCCCCn1c2nc(=O)[nH]c(=O)c-2cc2cc([N+](=O)[O-])ccc21	–	–
12.4	2.6	CCCCCCCCn1c2nc(=O)n(-c3ccccc3)c(=O)c-2cc2ccc([N+](=O)[O-])cc21	–	–
12.8	2.5	CCCCCCCCCCCCn1c2nc(=O)[nH]c(=O)c-2cc2ccc([N+](=O)[O-])cc21	–	–
7.6	3	CCCCCCCCn1c2nc(=O)n(CC(=O)OCC)c(=O)c-2cc2c([N+](=O)[O-])cccc21	–	–
2.6	1.8	CCCCCCCCCCCCn1c2nc(=O)[nH]c(=O)c-2cc2cccc([N+](=O)[O-])c21	–	–
8.4	2.6	CCCCCCCCn1c2nc(=O)n(-c3ccccc3)c(=O)c-2cc2c([N+](=O)[O-])cccc21	–	–
3.2	0.4	CCCCCCCCCCCCn1c2nc(=O)[nH]c(=O)c-2cc2c([N+](=O)[O-])cccc21	–	–
15.8	21.6	CCCCCCCCCCCCn1c2nc(=O)n(C)c(=O)c-2cc2cc([N+](=O)[O-])ccc21	–	–
0.4	0.6	CO[C@@]12[C@H](COC(N)=O)C3=C(C(=O)C(C)=C(N)C3=O)N1C[C@@H]1N[C@@H]12 [MITOMYCIN]	–	–
